{
  "source": "patent US12691176B2",
  "about": "“Ionic nanovesicle suspension and biocide prepared therefrom” (priority 2015, dated 2026)",
  "origin": "cited, not measured here",
  "key": {"bacteria": {"tested_on": "bacteria", "conditions": "very low concentrations"}},
  "data": [
    {"substance": "Polyaminopropyl biguanide [PAPB]", "values": [
      {"measurement": "fungicidal activity", "setting": "fungi", "value": "fungicidal"},
      {"measurement": "bactericidal concentration", "setting": "bacteria", "value": 10, "unit": "mg/L"}
    ]}
  ]
}
